According to the NIST ThermoML archive (doi:10.1021/acs.jced.8b00524):

Assay: xn = mol fraction of the nth substance listed
Conditions: 100 kPa, Liquid; for viscosity: Concentric cylinders viscometry; for mass density: Vibrating tube method

CCCCCCCCCO [nonan-1-ol] + CCCCOC(C)=O
Conditions | mass density [kg/m3] | viscosity [mPa·s]
293.15 K, x2 = 0 | 827.5 | 11.41
293.15 K, x2 = 0.0812 | 830.4 | 10.09
293.15 K, x2 = 0.1601 | 833.4 | 8.95
293.15 K, x2 = 0.2399 | 836.7 | 7.89
293.15 K, x2 = 0.3499 | 841.6 | 6.6
293.15 K, x2 = 0.4399 | 845.9 | 5.65
293.15 K, x2 = 0.5599 | 852.2 | 4.46
293.15 K, x2 = 0.6501 | 857.3 | 3.65
293.15 K, x2 = 0.7399 | 862.7 | 2.89
293.15 K, x2 = 0.8499 | 870 | 1.97
293.15 K, x2 = 0.9452 | 876.8 | 1.18
298.15 K, x2 = 0 | 824 | 9.43
298.15 K, x2 = 0.0812 | 826.7 | 8.31
298.15 K, x2 = 0.1601 | 829.6 | 7.35
298.15 K, x2 = 0.2399 | 832.8 | 6.49
298.15 K, x2 = 0.3499 | 837.4 | 5.4
298.15 K, x2 = 0.4399 | 841.6 | 4.62
298.15 K, x2 = 0.5599 | 847.7 | 3.64
298.15 K, x2 = 0.6501 | 852.7 | 2.99
298.15 K, x2 = 0.7399 | 858 | 2.37
298.15 K, x2 = 0.8499 | 865.1 | 1.65
298.15 K, x2 = 0.9452 | 871.8 | 1.03
303.15 K, x2 = 0 | 820.5 | 7.86
303.15 K, x2 = 0.0812 | 822.9 | 6.89
303.15 K, x2 = 0.1601 | 825.7 | 6.07
303.15 K, x2 = 0.2399 | 828.7 | 5.33
303.15 K, x2 = 0.3499 | 833.1 | 4.43
303.15 K, x2 = 0.4399 | 837.2 | 3.79
303.15 K, x2 = 0.5599 | 843.1 | 3
303.15 K, x2 = 0.6501 | 847.9 | 2.46
303.15 K, x2 = 0.7399 | 853 | 1.97
303.15 K, x2 = 0.8499 | 860 | 1.4
303.15 K, x2 = 0.9452 | 866.5 | 0.91
308.15 K, x2 = 0 | 817.1 | 6.61
308.15 K, x2 = 0.0812 | 819.4 | 5.78
308.15 K, x2 = 0.1601 | 821.9 | 5.08
308.15 K, x2 = 0.2399 | 824.7 | 4.44
308.15 K, x2 = 0.3499 | 828.9 | 3.68
308.15 K, x2 = 0.4399 | 832.8 | 3.14
308.15 K, x2 = 0.5599 | 838.4 | 2.49
308.15 K, x2 = 0.6501 | 843.1 | 2.07
308.15 K, x2 = 0.7399 | 848.1 | 1.67
308.15 K, x2 = 0.8499 | 854.9 | 1.21
308.15 K, x2 = 0.9452 | 861.4 | 0.81
313.15 K, x2 = 0 | 813.6 | 5.59
313.15 K, x2 = 0.0812 | 815.5 | 4.87
313.15 K, x2 = 0.1601 | 817.7 | 4.26
313.15 K, x2 = 0.2399 | 820.2 | 3.72
313.15 K, x2 = 0.3499 | 824.2 | 3.08
313.15 K, x2 = 0.4399 | 827.8 | 2.63
313.15 K, x2 = 0.5599 | 833.2 | 2.11
313.15 K, x2 = 0.6501 | 837.8 | 1.77
313.15 K, x2 = 0.7399 | 842.8 | 1.45
313.15 K, x2 = 0.8499 | 849.5 | 1.07
313.15 K, x2 = 0.9452 | 856 | 0.74
318.15 K, x2 = 0 | 810.1 | 4.78
318.15 K, x2 = 0.0812 | 811.8 | 4.15
318.15 K, x2 = 0.1601 | 813.8 | 3.62
318.15 K, x2 = 0.2399 | 816.1 | 3.16
318.15 K, x2 = 0.3499 | 819.7 | 2.61
318.15 K, x2 = 0.4399 | 823 | 2.24
318.15 K, x2 = 0.5599 | 828.3 | 1.8
318.15 K, x2 = 0.6501 | 832.7 | 1.5
318.15 K, x2 = 0.7399 | 837.5 | 1.24
318.15 K, x2 = 0.8499 | 844.3 | 0.93
318.15 K, x2 = 0.9452 | 850.8 | 0.67
323.15 K, x2 = 0 | 806.5 | 4.1
323.15 K, x2 = 0.0812 | 807.9 | 3.56
323.15 K, x2 = 0.1601 | 809.7 | 3.11
323.15 K, x2 = 0.2399 | 811.8 | 2.71
323.15 K, x2 = 0.3499 | 815.2 | 2.24
323.15 K, x2 = 0.4399 | 818.4 | 1.91
323.15 K, x2 = 0.5599 | 823.5 | 1.54
323.15 K, x2 = 0.6501 | 827.8 | 1.29
323.15 K, x2 = 0.7399 | 832.6 | 1.08
323.15 K, x2 = 0.8499 | 839.1 | 0.83
323.15 K, x2 = 0.9452 | 845.6 | 0.61

CCCCCCCO [heptan-1-ol] + CCCCOC(C)=O
Conditions | mass density [kg/m3] | viscosity [mPa·s]
293.15 K, x2 = 0 | 822.2 | 7.03
293.15 K, x2 = 0.0819 | 826.3 | 6.17
293.15 K, x2 = 0.1604 | 830.3 | 5.46
293.15 K, x2 = 0.2399 | 834.5 | 4.81
293.15 K, x2 = 0.3497 | 840.6 | 4.03
293.15 K, x2 = 0.4399 | 845.7 | 3.47
293.15 K, x2 = 0.5743 | 853.6 | 2.72
293.15 K, x2 = 0.6496 | 858.2 | 2.34
293.15 K, x2 = 0.7391 | 863.8 | 1.92
293.15 K, x2 = 0.8491 | 870.9 | 1.41
293.15 K, x2 = 0.9385 | 876.8 | 1.01
298.15 K, x2 = 0 | 818.7 | 5.92
298.15 K, x2 = 0.0819 | 822.6 | 5.17
298.15 K, x2 = 0.1604 | 826.4 | 4.56
298.15 K, x2 = 0.2399 | 830.5 | 3.99
298.15 K, x2 = 0.3497 | 836.3 | 3.33
298.15 K, x2 = 0.4399 | 841.3 | 2.86
298.15 K, x2 = 0.5743 | 849 | 2.25
298.15 K, x2 = 0.6496 | 853.5 | 1.95
298.15 K, x2 = 0.7391 | 859 | 1.61
298.15 K, x2 = 0.8491 | 865.9 | 1.22
298.15 K, x2 = 0.9385 | 871.8 | 0.9
303.15 K, x2 = 0 | 815.2 | 5.03
303.15 K, x2 = 0.0819 | 818.8 | 4.37
303.15 K, x2 = 0.1604 | 822.5 | 3.84
303.15 K, x2 = 0.2399 | 826.3 | 3.35
303.15 K, x2 = 0.3497 | 831.9 | 2.78
303.15 K, x2 = 0.4399 | 836.7 | 2.4
303.15 K, x2 = 0.5743 | 844.2 | 1.89
303.15 K, x2 = 0.6496 | 848.6 | 1.65
303.15 K, x2 = 0.7391 | 853.9 | 1.38
303.15 K, x2 = 0.8491 | 860.8 | 1.06
303.15 K, x2 = 0.9385 | 866.6 | 0.81
308.15 K, x2 = 0 | 811.6 | 4.3
308.15 K, x2 = 0.0819 | 815 | 3.73
308.15 K, x2 = 0.1604 | 818.4 | 3.26
308.15 K, x2 = 0.2399 | 822.1 | 2.84
308.15 K, x2 = 0.3497 | 827.4 | 2.36
308.15 K, x2 = 0.4399 | 832.1 | 2.03
308.15 K, x2 = 0.5743 | 839.3 | 1.61
308.15 K, x2 = 0.6496 | 843.6 | 1.41
308.15 K, x2 = 0.7391 | 848.9 | 1.19
308.15 K, x2 = 0.8491 | 855.7 | 0.94
308.15 K, x2 = 0.9385 | 861.4 | 0.73
313.15 K, x2 = 0 | 808 | 3.71
313.15 K, x2 = 0.0819 | 811 | 3.19
313.15 K, x2 = 0.1604 | 814.2 | 2.78
313.15 K, x2 = 0.2399 | 817.6 | 2.42
313.15 K, x2 = 0.3497 | 822.7 | 2.01
313.15 K, x2 = 0.4399 | 827.1 | 1.74
313.15 K, x2 = 0.5743 | 834.1 | 1.4
313.15 K, x2 = 0.6496 | 838.3 | 1.23
313.15 K, x2 = 0.7391 | 843.5 | 1.06
313.15 K, x2 = 0.8491 | 850.3 | 0.85
313.15 K, x2 = 0.9385 | 856 | 0.67
318.15 K, x2 = 0 | 804.4 | 3.21
318.15 K, x2 = 0.0819 | 807.2 | 2.75
318.15 K, x2 = 0.1604 | 810.1 | 2.4
318.15 K, x2 = 0.2399 | 813.3 | 2.08
318.15 K, x2 = 0.3497 | 818.1 | 1.73
318.15 K, x2 = 0.4399 | 822.3 | 1.49
318.15 K, x2 = 0.5743 | 829.2 | 1.22
318.15 K, x2 = 0.6496 | 833.3 | 1.09
318.15 K, x2 = 0.7391 | 838.4 | 0.94
318.15 K, x2 = 0.8491 | 845.1 | 0.77
318.15 K, x2 = 0.9385 | 850.9 | 0.62
323.15 K, x2 = 0 | 800.7 | 2.79
323.15 K, x2 = 0.0819 | 803.2 | 2.4
323.15 K, x2 = 0.1604 | 806 | 2.09
323.15 K, x2 = 0.2399 | 808.9 | 1.81
323.15 K, x2 = 0.3497 | 813.5 | 1.5
323.15 K, x2 = 0.4399 | 817.6 | 1.3
323.15 K, x2 = 0.5743 | 824.2 | 1.06
323.15 K, x2 = 0.6496 | 828.2 | 0.95
323.15 K, x2 = 0.7391 | 833.2 | 0.83
323.15 K, x2 = 0.8491 | 839.9 | 0.7
323.15 K, x2 = 0.9385 | 845.7 | 0.58
